Patent publication US20240189289A1, “INHIBITORS OF EPHB3 SIGNALING” (The Brigham and Women`s Hospital, Inc., priority 2021, published 2024)
Entries after “also recorded” stand apart in the source; their conditions may differ. Each block holds one compound with its values, some of them ahead of it.

Experiments:
[1] = test system: PI3K/AKT/mTOR signaling in astrocytes; experiment: Western blot of PI3K/AKT/mTOR/NF-κB signaling in primary murine astrocytes; assay type: cell-based, mouse; conditions: astrocytes activated 30 minutes with TNFα and IL-1β
Procedure: Mouse primary astrocyte cultures. […] The cell suspension was then cultured at 37° C. in humidified 5% CO2 on poly-L-Lysine (#P4707, Sigma-Aldrich) pre-coated cell culture flasks. Medium was replaced every 3-5 days. The cells reached confluence after 7-10 days. Microglia were separated by shaking the glia culture at 225 rpm at 37° C. for at least 3 h and washing extensively with 1×PBS. Astrocytes were detached by mild trypsinization with Trypsin-EDTA (0.05%) at 37° C. and plated. […] Both cell types were then cultured separately for downstream procedures. […] Finally, microglia and astrocytes of each condition where magnetically separated as before and lysed for downstream gene expression analysis.
SDS-PAGE and Western blot. […] Membranes were blocked in 10% skimmed milk (#M0841, Lab Scientific) in TBS-T (#IBB-180-2L, Boston BioProducts). Primary antibodies were incubated ON at 4° C. and secondary 30 minutes at RT.
HRP-conjugated blots were developed using the KwikQuant imaging system and KwikQuant western blot detection kit (#R1004 Kindle Biosciences).

EphA4 = EphA4 (Homo sapiens, UniProt P54764); experiment: Eph receptor kinase activity assay (radiometric), EphA4; assay type: biochemical
Sequence of EphA4 (P54764 20-986): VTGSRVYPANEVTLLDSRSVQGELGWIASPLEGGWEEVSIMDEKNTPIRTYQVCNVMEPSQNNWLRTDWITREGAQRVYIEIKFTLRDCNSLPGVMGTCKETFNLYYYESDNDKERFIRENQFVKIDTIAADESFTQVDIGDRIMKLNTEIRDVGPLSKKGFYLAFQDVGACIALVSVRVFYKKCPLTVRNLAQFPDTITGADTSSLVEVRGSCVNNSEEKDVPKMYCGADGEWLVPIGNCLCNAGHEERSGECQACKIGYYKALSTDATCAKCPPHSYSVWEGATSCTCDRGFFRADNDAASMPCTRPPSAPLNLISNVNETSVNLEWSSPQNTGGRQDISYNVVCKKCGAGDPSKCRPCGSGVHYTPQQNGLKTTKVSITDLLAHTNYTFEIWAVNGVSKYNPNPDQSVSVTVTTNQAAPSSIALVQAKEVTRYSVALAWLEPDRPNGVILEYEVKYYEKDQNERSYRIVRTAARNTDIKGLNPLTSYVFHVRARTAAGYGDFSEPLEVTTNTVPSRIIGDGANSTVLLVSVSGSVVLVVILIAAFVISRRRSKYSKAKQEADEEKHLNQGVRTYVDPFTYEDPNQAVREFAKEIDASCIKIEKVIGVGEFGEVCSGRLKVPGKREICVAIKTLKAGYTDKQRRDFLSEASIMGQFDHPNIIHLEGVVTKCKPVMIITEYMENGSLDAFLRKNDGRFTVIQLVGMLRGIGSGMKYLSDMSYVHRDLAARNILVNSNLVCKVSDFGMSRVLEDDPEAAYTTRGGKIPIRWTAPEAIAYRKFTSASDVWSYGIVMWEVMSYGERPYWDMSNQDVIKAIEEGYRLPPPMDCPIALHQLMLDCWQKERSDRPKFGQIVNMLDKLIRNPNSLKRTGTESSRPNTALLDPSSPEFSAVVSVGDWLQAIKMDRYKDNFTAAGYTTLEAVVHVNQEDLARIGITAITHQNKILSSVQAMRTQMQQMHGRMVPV

EphB3 = target: T1, EphB3 (Homo sapiens, UniProt P54753); experiment: EphB3 radiometric kinase activity assay (33P ATP filter binding); assay type: biochemical; conditions: for remaining activity at 0.01 µM: 10 nM compound, read-out: EphB3 % act 10 nM; for remaining activity at 0.1 µM: 100 nM compound, read-out: EphB3 % act 100 nM; for remaining activity at 0.3 µM: 300 nM compound, read-out: EphB3 % act 300 nM
T1 sequence (P54753 34-998): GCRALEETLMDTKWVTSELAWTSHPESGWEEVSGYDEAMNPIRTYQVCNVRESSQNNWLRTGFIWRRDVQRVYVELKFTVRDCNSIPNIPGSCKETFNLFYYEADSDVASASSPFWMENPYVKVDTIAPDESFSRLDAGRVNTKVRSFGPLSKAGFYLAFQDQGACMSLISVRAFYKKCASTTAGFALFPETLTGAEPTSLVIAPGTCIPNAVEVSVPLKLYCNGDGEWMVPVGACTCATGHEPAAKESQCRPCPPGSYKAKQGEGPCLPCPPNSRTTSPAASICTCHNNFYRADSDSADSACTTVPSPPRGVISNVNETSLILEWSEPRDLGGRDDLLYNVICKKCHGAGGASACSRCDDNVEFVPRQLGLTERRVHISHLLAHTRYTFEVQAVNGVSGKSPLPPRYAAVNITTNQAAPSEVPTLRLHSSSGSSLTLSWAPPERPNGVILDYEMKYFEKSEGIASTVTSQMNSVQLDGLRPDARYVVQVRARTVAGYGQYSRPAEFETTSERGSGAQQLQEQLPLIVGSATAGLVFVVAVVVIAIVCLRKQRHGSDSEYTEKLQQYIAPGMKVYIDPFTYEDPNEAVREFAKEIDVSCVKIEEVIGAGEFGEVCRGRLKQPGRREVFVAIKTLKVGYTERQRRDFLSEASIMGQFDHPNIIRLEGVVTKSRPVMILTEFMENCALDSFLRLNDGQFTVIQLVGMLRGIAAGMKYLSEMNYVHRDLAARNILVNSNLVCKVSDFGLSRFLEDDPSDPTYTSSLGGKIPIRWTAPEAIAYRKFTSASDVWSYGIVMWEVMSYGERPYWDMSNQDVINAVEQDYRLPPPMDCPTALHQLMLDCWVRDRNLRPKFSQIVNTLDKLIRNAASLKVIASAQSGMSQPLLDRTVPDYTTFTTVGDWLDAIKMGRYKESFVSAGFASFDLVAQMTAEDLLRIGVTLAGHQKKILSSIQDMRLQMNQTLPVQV
Procedure: EphB3 radiometric kinase activity assay. To study the EphB3 kinase activity, a radioactive filter binding assay using 33P ATP was performed as described at the […] International Centre for Kinase profiling. […] The mix was harvested onto P81 filter plates and counts were read on a Topcount NXT.

EphB4 = target: T2, EphB4 (Homo sapiens, UniProt P54760); experiment: Eph receptor kinase activity assay (radiometric), EphB4; assay type: biochemical; conditions: for remaining activity at 0.01 µM: 10 nM compound, read-out: EphB4 % act 10 nM; for remaining activity at 0.1 µM: 100 nM compound, read-out: EphB4 % act 100 nM; for remaining activity at 0.3 µM: 300 nM compound, read-out: EphB4 % act 300 nM
T2 sequence (P54760 16-987): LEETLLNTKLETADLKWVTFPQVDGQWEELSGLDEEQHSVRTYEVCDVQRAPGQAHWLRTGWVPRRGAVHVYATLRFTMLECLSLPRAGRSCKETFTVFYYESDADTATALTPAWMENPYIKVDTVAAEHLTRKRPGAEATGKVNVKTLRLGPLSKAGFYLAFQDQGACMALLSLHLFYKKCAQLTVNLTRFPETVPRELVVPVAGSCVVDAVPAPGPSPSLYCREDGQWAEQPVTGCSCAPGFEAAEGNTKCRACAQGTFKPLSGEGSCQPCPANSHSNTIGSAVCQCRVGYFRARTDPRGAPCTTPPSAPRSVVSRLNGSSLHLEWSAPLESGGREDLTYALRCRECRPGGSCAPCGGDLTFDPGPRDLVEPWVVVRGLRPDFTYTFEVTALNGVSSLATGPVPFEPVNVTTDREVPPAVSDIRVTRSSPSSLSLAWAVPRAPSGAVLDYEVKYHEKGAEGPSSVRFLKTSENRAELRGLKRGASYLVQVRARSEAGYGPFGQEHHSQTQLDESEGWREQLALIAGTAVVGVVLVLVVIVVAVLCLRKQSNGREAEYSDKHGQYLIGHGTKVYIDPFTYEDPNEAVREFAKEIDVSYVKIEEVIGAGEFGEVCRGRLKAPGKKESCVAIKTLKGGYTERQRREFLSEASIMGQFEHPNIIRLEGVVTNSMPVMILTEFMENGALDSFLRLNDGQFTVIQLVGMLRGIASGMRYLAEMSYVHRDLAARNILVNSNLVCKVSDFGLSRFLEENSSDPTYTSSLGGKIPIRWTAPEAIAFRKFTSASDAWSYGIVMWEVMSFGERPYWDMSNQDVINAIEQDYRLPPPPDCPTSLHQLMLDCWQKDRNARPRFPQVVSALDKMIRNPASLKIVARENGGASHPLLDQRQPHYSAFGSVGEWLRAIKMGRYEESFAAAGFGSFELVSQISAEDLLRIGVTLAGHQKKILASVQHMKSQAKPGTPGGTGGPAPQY

Aqueous solubility = assay type: physicochemical; conditions: aqueous medium at pH 7.4 (buffer not specified), pH 7.4, aqueous buffer; read-out: aqueous solubility
[2] = MTT and ATP-viability assays; assay type: cell-based; conditions: 30 μM
N2A neuronal cells = experiment: Neurotoxicity assay of astrocyte-conditioned medium (LDH release); assay type: cell-based, mouse; conditions: ACM from astrocytes pre-treated with compound, LDH release after 24 h
Procedure: (§1) Generation of astrocyte-conditioned medium (ACM). […] After 24 h, cells were extensively washed with 1×PBS, and incubated with fresh astrocyte complete medium for 48 h. Supernatants were spun down and kept at −80° C. until tested in migration and neurotoxicity assays.
Neurotoxicity Assay. N2A neuronal cells (#CCL-131, ATCC) were plated and pre-activated with 100 ng/mL mouse IFNγ (#485-MI-100; R&D Systems) for 24 h.
Thereafter, after extensive washing with 1×PBS, medium was replaced with ACM and after 24 h the supernatant was harvested for cytotoxicity evaluation by measuring LDH release with CytoTox 96 nonradioactive cytotoxicity assay kit (#G1780, Promega) following the manufacturer's protocol.

splenic CD11b+ monocytes = experiment: Monocyte migration assay with astrocyte-conditioned medium; assay type: cell-based, mouse; conditions: ACM from astrocytes pre-treated with compound
Procedure: as §1
Monocyte Migration Assay. Monocytes were purified from spleens from C57BL/6J mice using CD11b Microbeads (#130-049-601, Miltenyi) following the manufacturer's instructions. 100,000 monocytes were seeded in the upper chamber of a 24-well cell culture transwell, with a 5 μm pore size (#3421, Thermo Fisher Scientific), containing 300 μL of astrocyte-conditioned medium (as detailed earlier) in the bottom chamber. After 3 h incubation at 37° C. in 5% CO2, cells were collected from the lower chamber after shaking and accutase solution incubation (#A6964, Sigma-Aldrich) and quantified by FACS.

EphA2 = EphA2 (Homo sapiens, UniProt P29317); experiment: Eph receptor kinase activity assay (radiometric), EphA2; assay type: biochemical
Sequence of EphA2 (P29317 24-976): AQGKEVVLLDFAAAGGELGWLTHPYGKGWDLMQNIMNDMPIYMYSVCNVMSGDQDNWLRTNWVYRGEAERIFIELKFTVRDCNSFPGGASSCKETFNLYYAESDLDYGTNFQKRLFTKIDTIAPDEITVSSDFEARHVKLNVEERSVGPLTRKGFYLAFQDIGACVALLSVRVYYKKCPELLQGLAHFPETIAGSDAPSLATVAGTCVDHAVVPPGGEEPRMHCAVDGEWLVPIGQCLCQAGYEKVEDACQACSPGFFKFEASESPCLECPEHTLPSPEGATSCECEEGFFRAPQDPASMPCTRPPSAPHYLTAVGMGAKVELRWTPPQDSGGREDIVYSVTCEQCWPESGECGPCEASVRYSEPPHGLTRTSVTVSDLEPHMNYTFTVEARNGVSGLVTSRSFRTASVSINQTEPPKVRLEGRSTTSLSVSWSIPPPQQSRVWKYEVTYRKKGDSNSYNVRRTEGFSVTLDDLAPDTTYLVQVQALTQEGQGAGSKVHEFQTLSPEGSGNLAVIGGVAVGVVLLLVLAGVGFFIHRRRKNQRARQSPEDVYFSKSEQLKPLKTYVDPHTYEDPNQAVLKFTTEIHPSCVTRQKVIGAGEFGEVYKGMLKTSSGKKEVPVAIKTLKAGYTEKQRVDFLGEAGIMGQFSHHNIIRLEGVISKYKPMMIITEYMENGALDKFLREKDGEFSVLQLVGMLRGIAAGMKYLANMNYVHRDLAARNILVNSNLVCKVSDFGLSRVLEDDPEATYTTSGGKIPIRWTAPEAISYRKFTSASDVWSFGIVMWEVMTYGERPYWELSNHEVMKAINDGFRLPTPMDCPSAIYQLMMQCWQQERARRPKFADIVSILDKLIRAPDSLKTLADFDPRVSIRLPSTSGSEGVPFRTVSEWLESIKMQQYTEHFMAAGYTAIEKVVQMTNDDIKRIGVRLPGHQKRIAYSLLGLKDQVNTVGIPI

astrocytes = experiment: Mitochondrial ROS measurement (MitoSOX) in astrocytes; assay type: cell-based, mouse; conditions: Rotenone and Antimycin A given together
Procedure: Mitochondrial ROS measurement. 50,000 astrocytes were seeded per well in 96-well black plates and rested for 2 days in complete medium, followed by activation or inhibitor pretreatment for 24 h. MitoSOX red (Thermo Fisher Scientific, #M36008) was used to stain for mitochondrial ROS for 10 min following the manual and the signal was detected on Infinite M1000 PRO Microplate Reader (Tecan). The fluorescent signal was normalized to cell number estimated using CyQUANT cell proliferation assay kit (Invitrogen, #C7026) first and then compared to control group for data analysis.

SMILES: FC(F)c1nc2ccccc2n1-c1nc(N2CCOCC2)nc(N2CCOCC2)n1 [ZSTK474, reference compound]
phosphorylation of AKT [1]: suppressed

SMILES: O=C(Nc1ccccc1Cl)c1cnc2ccc(C3CCNCC3)cn12 [A-38, N-(2-chlorophenyl)-6-(piperidin-4-yl)imidazo[1,2-a]pyridine-3-carboxamide]
EphA4 % act 10 nM (EphA4; 10 nM compound): 32%
EphA4 % act 100 nM (EphA4; 100 nM compound): 14%
EphA4 % act 300 nM (EphA4; 300 nM compound): 9%
remaining activity at 0.01 µM (EphB3): 37%
remaining activity at 0.1 µM (EphB3): 14%
remaining activity at 0.3 µM (EphB3): 7%
remaining activity at 0.01 µM (EphB4): 68%
remaining activity at 0.1 µM (EphB4): 9%
remaining activity at 0.3 µM (EphB4): 3%
solubility (Aqueous solubility): > 10000 µg/mL
cytotoxicity in MTT and ATP-viability assays [2]: no cytotoxicity

SMILES: O=C(CCl)Nc1ccc2c(Nc3cc(O)ccc3Cl)ncnc2c1 [C9]
ACM neurotoxic activity (N2A neuronal cells): decrease in neurotoxicity; also recorded: reduced ACM neurotoxic
ACM chemoattractant activity (splenic CD11b+ monocytes): reduced ACM neurotoxic and chemoattractant activity

remaining activity at 0.01 µM (EphA2; 10 nM compound, read-out: EphA2 % act 10 nM): 71%
remaining activity at 0.1 µM (EphA2; 100 nM compound, read-out: EphA2 % act 100 nM): 46%
remaining activity at 0.3 µM (EphA2; 300 nM compound, read-out: EphA2 % act 300 nM): 21%
remaining activity at 0.01 µM (EphA4; 10 nM compound, read-out: EphA4 % act 10 nM): 65%
remaining activity at 0.1 µM (EphA4; 100 nM compound, read-out: EphA4 % act 100 nM): 36%
remaining activity at 0.3 µM (EphA4; 300 nM compound, read-out: EphA4 % act 300 nM): 12%
remaining activity at 0.01 µM (EphB3): 58%
remaining activity at 0.1 µM (EphB3): 39%
remaining activity at 0.3 µM (EphB3): 7%
remaining activity at 0.01 µM (EphB4): 75%
remaining activity at 0.1 µM (EphB4): 48%
remaining activity at 0.3 µM (EphB4): 3%
SMILES: NC(=O)c1cccc(-c2ccc3ncc(C(=O)Nc4ccccc4Cl)n3c2)c1 [compound 110, 6-(3-Carbamoylphenyl)-N-(2-chlorophenyl)imidazo[1,2-a]pyridine-3-carboxamide]

SMILES: C=C(C)[C@H]1Cc2c(ccc3c2O[C@@H]2COc4cc(OC)c(OC)cc4[C@@H]2C3=O)O1 [Rotenone, reference compound]
mitochondrial ROS levels (astrocytes): increases mitochondrial ROS levels
